According to patent US11179383B2 (Gilead Sciences, Inc., priority 2018, dated 2021):

Biological target: T1, α4β7 integrin (Homo sapiens, UniProt P13612+P26010)
T1 construct: monitoring the capture of α4β7 integrin expressing cells on a recombinant MadCAM-1 extracellular domain-coated plate; endogenous in cells; host or cells: RPMI8866 cells
T1 sequence (P13612 34-1032): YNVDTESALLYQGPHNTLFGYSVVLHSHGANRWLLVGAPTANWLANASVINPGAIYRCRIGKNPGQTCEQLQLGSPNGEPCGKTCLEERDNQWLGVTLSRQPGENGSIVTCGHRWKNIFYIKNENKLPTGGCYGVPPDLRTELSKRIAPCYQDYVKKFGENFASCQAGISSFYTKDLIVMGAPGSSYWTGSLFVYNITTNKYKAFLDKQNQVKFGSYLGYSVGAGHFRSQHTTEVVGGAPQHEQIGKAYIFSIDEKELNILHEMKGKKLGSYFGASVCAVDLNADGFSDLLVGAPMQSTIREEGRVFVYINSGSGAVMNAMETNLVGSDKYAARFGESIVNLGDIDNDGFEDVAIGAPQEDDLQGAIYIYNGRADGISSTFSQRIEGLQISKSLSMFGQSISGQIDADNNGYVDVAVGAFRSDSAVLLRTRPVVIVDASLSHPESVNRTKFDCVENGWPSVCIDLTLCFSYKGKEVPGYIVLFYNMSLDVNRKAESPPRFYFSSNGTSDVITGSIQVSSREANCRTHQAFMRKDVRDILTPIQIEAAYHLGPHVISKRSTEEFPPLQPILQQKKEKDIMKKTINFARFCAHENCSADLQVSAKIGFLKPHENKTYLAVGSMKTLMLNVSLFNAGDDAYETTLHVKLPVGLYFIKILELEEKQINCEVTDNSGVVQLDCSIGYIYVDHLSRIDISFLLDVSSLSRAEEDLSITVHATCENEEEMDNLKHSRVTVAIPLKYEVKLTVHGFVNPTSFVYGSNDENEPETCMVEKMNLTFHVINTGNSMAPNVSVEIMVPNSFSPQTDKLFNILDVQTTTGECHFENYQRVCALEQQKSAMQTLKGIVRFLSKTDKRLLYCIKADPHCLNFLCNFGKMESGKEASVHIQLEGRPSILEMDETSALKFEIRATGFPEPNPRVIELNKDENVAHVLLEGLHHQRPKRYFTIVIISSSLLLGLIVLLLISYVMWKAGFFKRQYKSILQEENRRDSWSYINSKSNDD
T1 sequence (P26010 20-798): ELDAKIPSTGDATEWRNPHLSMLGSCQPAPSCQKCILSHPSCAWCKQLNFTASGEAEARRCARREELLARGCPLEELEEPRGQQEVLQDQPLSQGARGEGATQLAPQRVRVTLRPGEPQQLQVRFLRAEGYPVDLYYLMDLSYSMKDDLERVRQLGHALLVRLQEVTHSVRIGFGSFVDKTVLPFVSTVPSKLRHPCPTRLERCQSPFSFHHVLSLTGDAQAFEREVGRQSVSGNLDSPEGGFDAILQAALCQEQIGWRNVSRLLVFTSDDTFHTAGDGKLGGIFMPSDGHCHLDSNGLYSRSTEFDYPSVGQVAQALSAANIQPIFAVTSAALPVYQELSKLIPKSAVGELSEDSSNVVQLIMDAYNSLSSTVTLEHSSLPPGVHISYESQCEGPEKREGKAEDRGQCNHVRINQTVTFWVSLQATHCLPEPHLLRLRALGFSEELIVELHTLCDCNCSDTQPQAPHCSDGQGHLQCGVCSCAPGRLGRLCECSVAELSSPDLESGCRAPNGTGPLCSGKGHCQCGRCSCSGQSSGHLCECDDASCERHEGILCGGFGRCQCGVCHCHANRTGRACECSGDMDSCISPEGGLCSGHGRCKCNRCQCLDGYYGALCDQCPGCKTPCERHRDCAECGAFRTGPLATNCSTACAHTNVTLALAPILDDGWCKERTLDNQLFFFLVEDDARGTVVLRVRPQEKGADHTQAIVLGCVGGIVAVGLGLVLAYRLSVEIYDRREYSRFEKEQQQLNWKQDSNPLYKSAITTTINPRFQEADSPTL
Assay: α4β7 Integrin Cell Capture Assay
Assay type: cell-based
Conditions: capture of α4β7 integrin expressing RPMI8866 cells on recombinant MadCAM-1 extracellular domain-coated plate; DMEM+0.5% FBS+0.5 mM MnCl2; read-out: EC50 α4β7
How it was run: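 RPMI8866 cells in DMEM + 0.5% FBS + 0.5 mM MnCl2 preincubated with compound 1 h at 37 °C, then allowed to bind 30 min at 37 °C to plates coated with MAdCAM-1 extracellular domain (1.0 μg/mL). Cells fixed with glutaraldehyde, Hoechst-stained, imaged and bound cells counted; EC50 from cell count versus concentration.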

| Structure (SMILES) | EC50 |
| --- | --- |
| CC1(C)C=Cc2c(C[C@H](NC(=O)c3c(Cl)cccc3Cl)C(=O)O)ccc(-c3c(Cl)cc(F)cc3Cl)c2O1 [Example 170, (S)-3-(8-(2,6-dichloro-4-fluorophenyl)-2,2-dimethyl-2H-chromen-5-yl)-2-(2,6-dichlorobenzamido)propanoic acid] | 206 nM |
| CCOCc1cc(OC)c(-c2ccc(C[C@H](NC(=O)c3c(F)cc(NS(=O)(=O)c4ccc(-c5ccnc(F)c5)cc4)cc3F)C(=O)O)c3c2cnn3C)c(OC)c1 [Example 144] | 4.9 nM |
| Cn1cc(F)cc(-c2ccc(C[C@H](NC(=O)c3c(Cl)cccc3Cl)C(=O)O)c3ncccc23)c1=O [Example 19, (S)-2-(2,6-dichlorobenzamido)-3-(5-(5-fluoro-1-methyl-2-oxo-1,2-dihydropyridin-3-yl)quinolin-8-yl)propanoic acid] | 26.3 nM |
| COc1cc(F)c(F)cc1-c1ccc(C[C@H](NC(=O)c2c(Cl)cccc2Cl)C(=O)O)c2nccc(Cl)c12 (single isomer, unassigned) [Example 96] | 572 nM |
| CCn1cccc(-c2ccc(C[C@H](NC(=O)c3c(Cl)cccc3Cl)C(=O)O)c3ncccc23)c1=O [Example 22, (S)-2-(2,6-dichlorobenzamido)-3-(5-(1-ethyl-2-oxo-1,2-dihydropyridin-3-yl)quinolin-8-yl)propanoic acid] | 123 nM |
| Cc1c(-c2ccc(C[C@H](NC(=O)c3c(Cl)cccc3Cl)C(=O)O)c3ncccc23)c(=O)n(C)c2cc(Cl)ccc12 (single isomer, unassigned) [Example 77] | 60.4 nM |
| O=C(N[C@@H](Cc1ccc(-c2c(Cl)cc(F)cc2Cl)c2cccnc12)C(=O)O)c1c(Cl)cccc1Cl [Example 7, (S)-3-(5-(2,6-dichloro-4-fluorophenyl)quinolin-8-yl)-2-(2,6-dichlorobenzamido)propanoic acid] | 522 nM |
| O=C(N[C@@H](Cc1ccc(-c2c(Cl)cccc2C(F)(F)F)c2cccnc12)C(=O)O)c1c(Cl)cccc1Cl [Example 44, (2S)-3-(5-(2-chloro-6-(trifluoromethyl)phenyl)quinolin-8-yl)-2-(2,6-dichlorobenzamido)propanoic acid] | 538 nM |
| CCOCc1cc(OC)c(-c2ccc(C[C@H](NC(=O)c3c(F)cc(NS(=O)(=O)c4ccc(-c5ccnc(F)c5)cc4)cc3F)C(=O)O)c3ccncc23)c(OC)c1 (single isomer, unassigned) [Example 161] | 0.5 nM |
| Cc1cc(N2CCOC[C@@H]2C(F)(F)F)cc(F)c1C(=O)N[C@@H](Cc1ccc(-c2c(C(F)(F)F)cc(C)n(C)c2=O)c2nccnc12)C(=O)O (atropisomer, axis not shown) [Example 178] | 0.08 nM |
| COc1cc(F)c(F)cc1-c1ccc(C[C@H](NC(=O)c2c(F)cccc2F)C(=O)O)c2ncccc12 [Example 79, (S)-3-(5-(4,5-difluoro-2-methoxyphenyl)quinolin-8-yl)-2-(2,6-difluorobenzamido) propanoic acid] | 45.7 nM |
| Cc1c(-c2ccc(C[C@H](NC(=O)c3c(Cl)cccc3Cl)C(=O)O)c3ncccc23)c(=O)n(C)c2ccc(F)cc12 (single isomer, unassigned) [Example 12] | 19.5 nM |
| COc1cccc(OC)c1-c1ccc(C[C@H](NC(=O)c2c(F)cc(NS(=O)(=O)c3ccc(-c4ccnc(F)c4)cc3)cc2F)C(=O)O)c2ccccc12 [Example 103, (S)-2-(2,6-difluoro-4-((4-(2-fluoropyridin-4-yl)phenyl)sulfonamido)benzamido)-3-(4-(2,6-dimethoxyphenyl)naphthalen-1-yl)propanoic acid] | 1.9 nM |
| Cc1c(-c2ccc(C[C@H](NC(=O)c3c(F)cccc3F)C(=O)O)c3nccnc23)c(=O)n(C)c2ccc(F)cc12 [Example 159, (S)-2-(2,6-difluorobenzamido)-3-(8-(6-fluoro-1,4-dimethyl-2-oxo-1,2-dihydroquinolin-3-yl)quinoxalin-5-yl)propanoic acid] | 1.9 nM |
| Cc1cc(C(F)(F)F)c(-c2ccc(C[C@H](NC(=O)c3c(Cl)cccc3Cl)C(=O)O)c3ncccc23)nn1 [Example 16, (S)-2-(2,6-dichlorobenzamido)-3-(5-(6-methyl-4-(trifluoromethyl)pyridazin-3-yl)quinolin-8-yl)propanoic acid] | 144 nM |
| O=C(N[C@@H](Cc1ccc(-c2c(Cl)cc(F)cc2Cl)c2cccnc12)C(=O)O)c1c(F)cccc1F [Example 1, (S)-3-(5-(2,6-dichloro-4-fluorophenyl)quinolin-8-yl)-2-(2,6-difluorobenzamido)propanoic acid] | 210 nM |
| O=C(N[C@@H](Cc1ccc(-c2ncc3ccccc3c2C(F)(F)F)c2ccccc12)C(=O)O)c1c(Cl)cccc1Cl [Example 115, (S)-2-(2,6-dichlorobenzamido)-3-(4-(4-(trifluoromethyl)isoquinolin-3-yl)naphthalen-1-yl)propanoic acid] | 21.7 nM |
| Cc1c(-c2ccc(C[C@H](NC(=O)c3c(Cl)cccc3Cl)C(=O)O)c3ncccc23)c(=O)n(C)c2cc(F)ccc12 [Example 41, (S)-2-(2,6-dichlorobenzamido)-3-(7-fluoro-1,4-dimethyl-2-oxo-1,2-dihydro-[3,5′-biquinolin]-8′-yl)propanoic acid] | 7.5 nM |
| O=C(N[C@@H](Cc1ccc(-c2c(Cl)cc(F)cc2Cl)c2nccnc12)C(=O)O)c1c(Cl)cccc1Cl [Example 157, (S)-3-(8-(2,6-dichloro-4-fluorophenyl)quinoxalin-5-yl)-2-(2,6-dichlorobenzamido)propanoic acid] | 161 nM |
| Cn1c(=O)c(-c2ccc(C[C@H](NC(=O)c3c(Cl)cccc3Cl)C(=O)O)c3ncccc23)cc2ccccc21 [Example 21, (S)-2-(2,6-dichlorobenzamido)-3-(1-methyl-2-oxo-1,2-dihydro-[3,5′-biquinolin]-8′-yl)propanoic acid] | 5.8 nM |
| Cc1cc(C(F)(F)F)c(-c2ccc(C[C@H](NC(=O)c3c(Cl)cccc3Cl)C(=O)O)c3ncccc23)c(=O)n1C (single isomer, unassigned) [Example 61] | 15.1 nM |
| O=C(N[C@@H](Cc1ccc(-c2ccc(F)cc2Cl)c2c(Cl)ccnc12)C(=O)O)c1c(F)cccc1F [Example 90, (S)-3-(4-chloro-5-(2-chloro-4-fluorophenyl)quinolin-8-yl)-2-(2,6-difluorobenzamido)propanoic acid] | 4280 nM |
| COc1cccc(OC)c1-c1ccc(C[C@H](NC(=O)c2c(F)cc(NS(=O)(=O)c3ccc(-c4ccnc(F)c4)cc3)cc2F)C(=O)O)c2nccnc12 [Example 154, (S)-2-(2,6-difluoro-4-((4-(2-fluoropyridin-4-yl)phenyl)sulfonamido)benzamido)-3-(8-(2,6-dimethoxyphenyl)quinoxalin-5-yl)propanoic acid] | 2.6 nM |
| CCOCc1cc(OC)c(-c2ccc(C[C@H](NC(=O)c3c(F)cccc3F)C(=O)O)c3nc(C)oc23)c(OC)c1 [Example 152, (S)-2-(2,6-difluorobenzamido)-3-(7-(4-(ethoxymethyl)-2,6-dimethoxyphenyl)-2-methylbenzo[d]oxazol-4-yl)propanoic acid] | 57.8 nM |
